Experimental data published in patent US20240052012A1, “PLATELET ALPHA-GRANULES FOR DELIVERY OF MULTIPLE PROTEINS” (CSTS Health Care Inc., priority 2021, published 2024).
Ends that are not written are not given here.

Experiments:
[1] = test system: platelets (platelet rich plasma); test: FACS analysis of growth factor uptake by platelets; assay type: cell-based; conditions: pretreatment of platelet rich plasma; FGF, PF4, VEGF, TPO; all but thrombopoietin; FIG. 15B
Description: (Inh=inhibitor added, PF4 receptor, a splice variant of the chemokine receptor CXCR3, known as CXCR3B).

platelet α-granule = test: Confocal microscopy, loading of Alexa647-PAL1 conjugated Lucitanib; assay type: cell-based; conditions: one hour at 37° C.; FIG. 26A
Experimental: Platelets were co-incubated with Alexa647-labled Lucitanib or with Alexa647-PAL1 conjugated Lucitanib for one hour at 37° C. The platelets were then spun for 10-minutes at 800 g, fixed in 2% paraformaldehyde, and settled onto glass coverslips. After permeabilization, immunofluorescence staining was performed against PF4 in platelets and further stained with Alexa568-secondary antibody. The images were collected through a Nikon-Al laser-scanning microscope equipped with a 60× oil objective. FIG. 26A includes representative images in which immunofluorescence for PF4 was shown in red and Alexa647 was shown in blue. […] FIG. 26B is a graph showing the averaged intensities of Alexa647 channel for >800 ROIs in each group were analyzed using ImageJ and the error bar is the standard deviation of the mean.

[2] = test system: alpha granules of platelets; test: Confocal microscopy, colocalization of Alexa647-labeled peptides with PF4; assay type: cell-based; conditions: for loading into alpha granules of platelets (Alexa647 intensities per ROI): ROIs selected on PF4 intensity, FIG. 2B
Experimental: To confirm that the Alexa647-labeled GAG-binding peptides were loaded into alpha granules of platelets, confocal microscopy was used. The platelets that were centrifuged in the experiments of FIG. 1A and FIG. 1B, were fixed in 2% paraformaldehyde and settled onto glass coverslips. After permeabilization, immunofluorescence staining was performed against PF4, which is a marker for alpha granules of platelets. Platelets were stained with Alexa568-secondary antibody. Images were collected through a Nikon-A1 laser-scanning microscope equipped with a 60× oil objective lens.
FIG. 2A are representative images with PF4 staining shown in red (left column) and the Alexa647 signal (from the free Alexa647, Alexa647-labeled GAG-binding peptide, or Alexa647-labeled CFL; middle column) shown in purple. Images were only adjusted for brightness and contrast for display. n>5 images were acquired for each experiment and regions of interest (ROIs) were selected based on PF4 intensity.
The Alexa647 intensities for each ROI were measured using ImageJ and plotted in box and whisker graph using Prism 8.

isolated platelets = test: Platelet loading of Alexa647-labeled peptides, decrease in fluorescence in supernatant; assay type: cell-based; conditions: for fluorescence of supernatant, complete versus loaded measurements (platelet loading): Alexa647-labeled peptides co-incubated with isolated platelets at 37° C. for one hour, FIG. 1A; for loading of attached cargo into platelets, loaded condition normalized to its complete condition: FIG. 1B
Experimental: Alexa647-labeled peptides or Alexa647 alone were co-incubated with isolated platelets at 37° C. for one hour to allow for platelet loading. The respective platelet-loading ability was indicated by a decrease in fluorescence in supernatant following the incubation. For controls, identical experiments were performed without the incubation period (noted as “complete” in the figure). Platelets following co-incubation were then centrifuged at 800 g for 10-minutes to separate platelets from supernatant (noted as “loaded” in the figure).
FIG. 1B represents the data in FIG. 1A normalized for each peptide experiment, i.e., normalization of a loaded condition to its complete condition.

[3] = test system: alpha-granule subsets of platelets; test: Confocal microscopy, subcellular localization of Alexa647-labelled PAL1 and PAL2 against VEGF and PF4; assay type: cell-based; conditions: Alexa647-labelled peptides, FIG. 24; for loading into alpha-granule subsets: VEGF and PF4 markers; for preferred colocalization with alpha-granule subset marker: VEGF/PAL and PF4/PAL merged
Experimental: FIG. 24 are immunofluorescent images showing that PAL1 and PAL2 have different subcellular localizations, i.e., have a preference for distinct alpha-granules. Using VEGF as the marker of one alpha-granule set (green) and PF4 as the marker of the second alpha-granule set (red), the subcellular localization of Alexa647-labelled PAL1 and PAL2 (blue) were recorded on Nikon-Al confocal microscope.
The images FIG. 24 were acquired using Nikon-A1 confocal microscope equipped with a 60× oil immersed objective. PAL1 and PAL2 partially colocalize with both subsets of the alpha-granules as indicated by the cyan and purple pixels in the merged images. To quantify the difference between PAL1 and PAL2, the fractionation of loaded platelets were performed

[4] = Isothermal titration calorimetry (ITC) of GAG-binding peptides; conditions: for affinity for chondroitin sulfate A (dissociation constants by ITC): 22° C., 5 mM Tris-HCl pH 7.35, 1% DMSO, FIG. 3E, 3F
Experimental: FIG. 3A is a schematic depicting the isothermal titration calorimetry (ITC) experiments performed in this example. Here, chondroitin sulfate A (CSA) was used to test affinities of illustrative GAG-binding peptides for glycosaminoglycan. 3 mM CSA was loaded into a syringe and CSA was titrated into the sample cell withholding a 0.25 mM solution of GAG-binding peptide or a charge-free ligand (CFL), which served as a negative control. Temperature was set at 22° C., the buffer was 5 mM Tris-HCl (pH 7.35), and 1% DMSO.
FIG. 3B to FIG. 3D show graphical representations of ITC dissociation kinetics for CSA titrated into cells withholding PAL1 (FIG. 3B), PAL2 (FIG. 3C), and CFL (FIG. 3D).
The data obtained during the experiments of FIG. 3B and FIG. 3C were used to determine dissociation constants for the CSA and GAG-binding peptide interactions; these were determined through titration curve fitting using sequential binding model.
(§1) Additionally, the binding affinities for the two illustrative GAG-binding peptides, PAL1 and PAL2, to Heparan Sulfate (HS) and Chondroitin Sulfate (CSA) was determined using affinity chromatography. […] The dissociation constants were measured using ITC, the higher it is, the looser the binding is. […] The binding was measured by the elution volume on a Hi-Trap Heparin column attached to a FPLC system. The later the peak occurs, the tighter the binding is. In FIG. 4A, the peptide amino acid sequences including the control peptide (CFL) and the two PALs (PAL1 and PAL2) are shown.

EOMA cells and platelets = test: Immunofluorescence, aggregation of platelet PF4 on EOMA cells; assay type: cell-based, murine; conditions: FIG. 22
Experimental: Platelet factor 4 (PF4) has one of the highest affinities for HS occurring in nature and can occupy GAG sites and displace other HS binding growth factors. As such, PF4 acts as an inhibitor of tumor growth. FIG. 22 are immunofluorescent images showing that platelets form a provisional matrix that can exchange proteins with endothelial cells upon tumor activation. Murine hemangioendothelioma cells (EOMA) cells were grown in standard media (DMEM+10% FBS), and normal platelets were added. Under normal conditions (top row), PF4 (the main content of platelets α-granules; green and left column) is seen at the periphery (i.e., along the membrane) of the EOMA cells as the platelets aggregate along the cell membrane. Heparan sulphate (red, second from left column) is distributed throughout the membranous surface of the endothelial cell, and DAPI (blue, second from right column) is the nuclear counterstain. In absence of tumor conditioned media, thrombin or other activators of endothelial cell, there is no clumping and aggregation of the platelets. […] However, upon incubation of EOMA cells and platelets in presence of tumor conditioned media (second row), the expression of HS is increased, and a thick platelet provisional matrix is formed as shown by the aggregation of PF4 on the HS rich surface EOMA cell; this platelet provisional matrix is used by EOMA cells for growth. […]

[5] = test system: murine hemangioendothelioma cells (EOMA); test: Sequestration of bFGF by GAGs on EOMA cells; assay type: cell-based; conditions: monolayer culture, standard or tumor conditioned media; FIG. 20
Description: FIG. 20 is a graph showing sequestration of growth factors by glycosaminoglycans (GAGs) on the surface of murine hemangioendothelioma cells (EOMA). Here, the cells growing in monolayer tissue culture conditions either under standard media conditions or in surrogate tumor environment using tumor conditioned media, sequester bFGF onto the GAGS on platelets and endothelial cells, and thus remove it from the supernatant. […] Values represent means and SE of 5 wells.

[6] = Affinity chromatography of peptides, Hi-Trap Heparin column on FPLC; assay type: binding; conditions: PAL1 versus PAL2; FIG. 4C
Experimental: as §1

Cc1cc(N)c2cc(NC(=O)Nc3ccc4nc(C)cc(N)c4c3)ccc2n1 [surfen]
growth factor uptake by platelets [1]: significantly inhibits growth factor uptake by platelets

Alexa647-labelled PAL1 conjugated-Lucitanib: Lucitanib conjugated with Alexa647-labelled PAL1 (SEQ ID NO: 1) (ERRIWFPYRRF; also: Alexa647 label, conjugated to Lucitanib, sites not given here)
colocalization with PF4 / loading into α-granules (platelet α-granule): colocalization

EGGIWFPYGGF [CFL, reference compound]
loading into alpha granules of platelets (Alexa647 intensities per ROI) [2]: do not load into platelets | colocalization of alpha granule marker PF4 and Alexa647 signal ([2]; merged images, FIG. 2A): Co-localization was not observed | fluorescence of supernatant, complete versus loaded measurements (platelet loading) (isolated platelets): did not change | loading of attached cargo into platelets, loaded condition normalized to its complete condition (isolated platelets): unable to direct loading of the cargo into platelets

ERRIWFPYRRF [PAL1]
loading into alpha granules of platelets (Alexa647 intensities per ROI) [2]: facilitates loading of an attached cargo into alpha granules of platelets | loading into alpha-granule subsets [3]: loaded to both the subsets of alpha-granules | preferred colocalization with alpha-granule subset marker [3]: colocalized more to the VEGF subset | fluorescence of supernatant, complete versus loaded measurements (platelet loading) (isolated platelets): decrease in absorbance | loading of attached cargo into platelets, loaded condition normalized to its complete condition (isolated platelets): facilitates loading of an attached cargo into platelets | affinity for chondroitin sulfate A (dissociation constants by ITC) [4]: high affinity | relative binding to CSA (dissociation constants by ITC) ([4]; PAL1 versus PAL2, FIG. 4B): bind CSA tighter than PAL2

Heparin
aggregation of platelet PF4 on the HS rich surface of EOMA cells (EOMA cells and platelets): inhibited | sequestration of bFGF from the supernatant onto GAGs [5]: further enhance the phenomenon

RFRWPYRIREF [PAL2]
loading into alpha granules of platelets (Alexa647 intensities per ROI) [2]: facilitates loading of an attached cargo into alpha granules of platelets | relative binding to HS (elution volume on Hi-Trap Heparin column) [6]: binds HS tighter than PAL1 | loading into alpha-granule subsets [3]: loaded to both the subsets of alpha-granules | preferred colocalization with alpha-granule subset marker [3]: colocalized more to the PF4 channel | fluorescence of supernatant, complete versus loaded measurements (platelet loading) (isolated platelets): decrease in absorbance | loading of attached cargo into platelets, loaded condition normalized to its complete condition (isolated platelets): facilitates loading of an attached cargo into platelets | affinity for chondroitin sulfate A (dissociation constants by ITC) [4]: high affinity

thrombin
aggregation of platelet PF4 on the HS rich surface of EOMA cells (EOMA cells and platelets): reproduced | sequestration of bFGF from the supernatant onto GAGs [5]: released from the GAGs into the supernatant
